Drawing on patent publication US11267824B2, “Inhibitors of indoleamine 2,3-dioxygenase and/or tryptophan 2,3-dioxygenase” (IDORSIA PHARMACEUTICALS LTD, priority 2017, dated 2022), this text covers IC50 for 26 molecules.

Assay [1] deals with Recombinant full-length human IDO1 (Homo sapiens (Human), UniProt P14902). Briefly: IDO1 enzymatic assay (IDO inhibitory activity). Format: biochemical. The settings on record: 2 nM enzyme, 5 μM L-tryptophan, pH6.5, 30 min pre-incubation, NFK quantified by LCMS; mean values if measured multiple times; read-out: hIDO activity (IC50 in nM). The method, then:
1) Testing Compounds for IDO Inhibitory Activity in an IDO1 Enzymatic Assay:
Recombinant full-length human IDO1 with a N-terminal hexahistidine tag expressed in E. coli and purified to homogeneity is incubated at a final concentration of 2 nM in assay buffer consisting of 37.5 mM phosphate buffer at pH6.5 supplemented with 10 mM sodium L-ascorbate, 0.45 μM methylene blue, 50 U/ml catalase, 0.01% BSA, and 0.01% Tween 20 (protocol modified from Seegers et al, JBS 2014). Example compounds are serially diluted in DMSO, further diluted in phosphate buffer, and added to the enzyme at final concentrations ranging from 10 μM to 0.5 nM. The final DMSO concentration is 0.6%. Following a pre-incubation of 30 minutes at RT, the reaction is started by the addition of L-tryptophan at a final concentration of 5 μM in assay buffer. After 30 minutes of incubation at RT, 3 μL of the reaction mixture are transferred to a 384 deep well plate containing 25 μL of deionized water. 100 μl of 200 nM L-Tryptophan-(indole-d5) in cold 100% methanol are added followed by a 10 minutes centrifugation at 4,000 rpm at 4° C. An additional 75 μL of deionized water are then added and followed by a 10 minutes centrifugation at 4,000 rpm at 4° C. The product of the reaction N′-Formylkynurenine (NFK) is quantified by LCMS and normalized to the L-Tryptophan-(indole-d5) signal. Samples with 0.6% DMSO (0% effect) and a TDO/IDO inhibitor (100% effect) are used as control samples to set the parameters for the non-linear regression necessary for the determination of the half-maximal inhibitory concentration (IC50) for each compound. For each compound concentration the percentage of activity compared to 0% and 100% effect is calculated as average ±STDEV (each concentration measured in duplicate). IC50 values and curves are generated with XLfit software (IDBS) using Dose-Response One Site model 203 (four parameter logistic curve model). When compounds are measured multiple times, mean values are given.

For assay [2], the target named is Recombinant human TDO comprising amino acids 19-407 (Homo sapiens (Human), UniProt P48775). Briefly: TDO2 enzymatic assay (TDO inhibitory activity). Format: biochemical. The following applies: 15 nM enzyme, 200 μM L-tryptophan, pH7, 30 min pre-incubation, NFK quantified by LCMS; mean values if measured multiple times; read-out: hTDO activity (IC50 in nM). The method, then: 2) Testing Compounds for TDO Inhibitory Activity in a TDO2 Enzymatic Assay:
Recombinant human TDO comprising amino acids 19-407 with a N-terminal hexahistidine tag expressed in E. coli and purified to homogeneity is incubated at a final concentration of 15 nM in assay buffer consisting of 75 mM phosphate buffer at pH7 supplemented with 100 μM ascorbic acid, 50 U/ml Catalase, 0.01% BSA, and 0.01% Tween 20 (protocol modified from Seegers et al, JBS 2014). Example compounds are serially diluted in DMSO, further diluted in phosphate buffer, and added to the reaction mixture at final concentrations ranging from 10 μM to 0.5 nM. The final DMSO concentration is 0.6%. Following a pre-incubation of 30 minutes at RT, the reaction is started by the addition of L-tryptophan at a final concentration of 200 μM in assay buffer. After 30 minutes of incubation at RT, 3 μL of the reaction mixture are transferred to a 384 deep well plate containing 25 μL of deionized water. 100 μl of 200 nM L-Tryptophan-(indole-d5) in cold 100% methanol are added followed by a 10 minutes centrifugation at 4,000 rpm at 4° C. An additional 75 μL of deionized water are then added and followed by a 10 minutes centrifugation at 4,000 rpm at 4° C. The product of the reaction N′-Formylkynurenine (NFK) is quantified by LCMS and normalized to the L-Tryptophan-(indole-d5) signal. Samples with 0.6% DMSO (0% effect) and a TDO/IDO inhibitor (100% effect) are used as control samples to set the parameters for the non-linear regression necessary for the determination of the half-maximal inhibitory concentration (IC50) for each compound. For each compound concentration the percentage of activity compared to 0% and 100% effect is calculated as average±STDEV (each concentration measured in duplicate). IC50 values and curves are generated with XLfit software (IDBS) using Dose-Response One Site model 203 (four parameter logistic curve model). When compounds are measured multiple times, mean values are given.

Chain of Recombinant full-length human IDO1 (P14902 whole entry): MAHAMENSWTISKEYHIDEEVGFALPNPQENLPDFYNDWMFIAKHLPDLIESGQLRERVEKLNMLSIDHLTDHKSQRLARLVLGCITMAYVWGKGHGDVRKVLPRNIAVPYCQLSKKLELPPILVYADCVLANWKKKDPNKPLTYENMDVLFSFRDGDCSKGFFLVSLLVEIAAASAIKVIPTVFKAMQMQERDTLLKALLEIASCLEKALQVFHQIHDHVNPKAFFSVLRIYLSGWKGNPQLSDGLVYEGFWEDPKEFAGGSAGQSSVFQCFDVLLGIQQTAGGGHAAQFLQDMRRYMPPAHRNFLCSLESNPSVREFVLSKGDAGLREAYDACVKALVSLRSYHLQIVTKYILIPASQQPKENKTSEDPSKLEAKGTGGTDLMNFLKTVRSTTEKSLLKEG
Chain of Recombinant human TDO comprising amino acids 19-407 (P48775 19-406 limits assumed): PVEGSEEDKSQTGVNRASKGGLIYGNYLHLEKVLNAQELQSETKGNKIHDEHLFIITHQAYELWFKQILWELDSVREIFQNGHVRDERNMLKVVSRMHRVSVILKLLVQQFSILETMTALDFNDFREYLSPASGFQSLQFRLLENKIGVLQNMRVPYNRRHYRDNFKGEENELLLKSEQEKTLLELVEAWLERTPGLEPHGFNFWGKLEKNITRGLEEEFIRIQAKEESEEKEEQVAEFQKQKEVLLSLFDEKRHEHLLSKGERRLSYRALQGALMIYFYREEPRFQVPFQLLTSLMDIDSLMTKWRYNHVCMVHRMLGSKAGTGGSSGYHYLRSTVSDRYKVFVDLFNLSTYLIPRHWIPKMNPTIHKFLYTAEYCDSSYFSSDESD

Consider `OC(Cc1cccc2ccccc12)c1c(C2CC2)sc2cncn12` (racemic) [Example 67, rac-1-(2-Cyclopropyl-imidazo[5,1-b]thiazol-3-yl)-2-naphthalen-1-yl-ethanol], for which the IC50 in assay [1] came to 325 nM; in assay [2], 3510 nM.
Regarding `Cc1sc2cncn2c1[C@@H](O)C1(C)CCCC1` [Example 140a, (S)-(1-Methyl-cyclopentyl)-(2-methyl-imidazo[5,1-b]thiazol-3-yl)-methanol], the results for the IC50 in assay [1] and in assay [2] were 23.9 nM and 15.8 nM, respectively.
For the molecule `CCc1sc2cncn2c1C(O)C1(C)CCCC1` (racemic) [Example 172, rac-(2-Ethyl-imidazo[5,1-b]thiazol-3-yl)-(1-methyl-cyclopentyl)-methanol], the IC50 came to 4.97 nM in assay [1] and 28.7 nM in assay [2].
On to `COCc1sc2cncn2c1C(O)C1CCCCC1` (racemic) [Example 157, rac-Cyclohexyl-(2-methoxymethyl-imidazo[5,1-b]thiazol-3-yl)-methanol], for which the IC50 in assay [1] was 744 nM; in assay [2], 327 nM.
For the molecule `CC1(c2sc3cncn3c2C(O)C2CCCCC2)CC1` (racemic) [Example 170, rac-Cyclohexyl-[2-(1-methyl-cyclopropyl)-imidazo[5,1-b]thiazol-3-yl]-methanol], the results for the IC50 in assay [1] and in assay [2] were 415 nM and 2260 nM, respectively.
`CC(C)(C)C1CCC(C(O)c2c(C3CC3)sc3cncn23)CC1` (racemic) [Example 86, rac-(4-tert-Butyl-cyclohexyl)-(2-cyclopropyl-imidazo[5,1-b]thiazol-3-yl)-methanol]: the figures for the IC50 in assay [1] and in assay [2] were 511 nM and 2780 nM, respectively.
With `CCc1sc2cncn2c1C(O)C1CCCCC1` (racemic) [Example 96, rac-Cyclohexyl-(2-ethyl-imidazo[5,1-b]thiazol-3-yl)-methanol], the IC50 in assay [1] turned out to be 10.5 nM; in assay [2], 39.9 nM.
As to `OC(c1c(C2CC2)sc2cncn12)C1CC2CCCC2C1` (stereo not shown) [Example 133, (2-Cyclopropyl-imidazo[5,1-b]thiazol-3-yl)-(octahydro-pentalen-2-yl)-methanol], the values for the IC50 in assay [1] and in assay [2] were 7.07 nM and 259 nM, respectively.
Turning to `COc1ccc(-c2sc3cncn3c2C(O)C2CCCCC2)cc1` (racemic) [Example 127, rac-Cyclohexyl-[2-(4-methoxy-phenyl)-imidazo[5,1-b]thiazol-3-yl]-methanol], the IC50 worked out at 3090 nM in assay [1] and 1990 nM in assay [2].
As to `O[C@@H](CC1CCCCC1)c1c(Cl)sc2cncn12` [Example 16a, (S)-1-(2-Chloro-imidazo[5,1-b]thiazol-3-yl)-2-cyclohexyl-ethanol], the IC50 in assay [1] was determined as 35.6 nM; in assay [2], 658 nM.
As to `O[C@H](c1c(-c2ccccc2)sc2cncn12)C1CCCCC1` [Example 92a, (S)-Cyclohexyl-(2-phenyl-imidazo[5,1-b]thiazol-3-yl)-methanol], the IC50 in assay [1] was 242 nM; in assay [2], 171 nM.
`CC1CCC(C(O)c2c(C(F)(F)F)sc3cncn23)CC1` (racemic) [Example 115, rac-(4-Methyl-cyclohexyl)-(2-trifluoromethyl-imidazo[5,1-b]thiazol-3-yl)-methanol]: the IC50 in assay [1] is 84.1 nM; in assay [2], 1960 nM.
As to `OC(CC1CCCCC1)c1c(Br)sc2cncn12` (racemic) [Example 33, rac-1-(2-Bromo-imidazo[5,1-b]thiazol-3-yl)-2-cyclohexyl-ethanol], the IC50 came out at 55.7 nM in assay [1] and 1410 nM in assay [2].
Turning to `OC1CCC(C(O)c2c(C3CC3)sc3cncn23)CC1` (racemic) [Example 151, rac-4-[(2-Cyclopropyl-imidazo[5,1-b]thiazol-3-yl)-hydroxy-methyl]-cyclohexanol], the values for the IC50 in assay [1] and in assay [2] were 102 nM and 2640 nM, respectively.
The matching figures for `CCc1sc2cncn2c1C(O)c1cn(C2CCCC2)nn1` (racemic) [Example 198, rac-(1-Cyclopentyl-1H-[1,2,3]triazol-4-yl)-(2-ethyl-imidazo[5,1-b]thiazol-3-yl)-methanol]: 116 nM and greater than 10200 nM.
On to `OC(c1c(C2CC2)sc2cncn12)C1CCC2CCCCC2C1` (stereo not shown) [Example 90, (2-Cyclopropyl-imidazo[5,1-b]thiazol-3-yl)-(decahydro-naphthalen-2-yl)-methanol], for which the IC50 in assay [1] is 133 nM; in assay [2], 1080 nM.
As for `CC1(C)CCC(CC(O)c2c(C(F)(F)F)sc3cncn23)CC1` (racemic) [Example 118, rac-2-(4,4-Dimethyl-cyclohexyl)-1-(2-trifluoromethyl-imidazo[5,1-b]thiazol-3-yl)-ethanol], the IC50 in assay [1] was 447 nM; in assay [2], 7280 nM.
As for `CC1(C)CCC(CC(O)c2c(C3CC3)sc3cncn23)CC1` (racemic) [Example 25, rac-1-(2-Cyclopropyl-imidazo[5,1-b]thiazol-3-yl)-2-(4,4-dimethyl-cyclohexyl)-ethanol], the IC50 in assay [1] is 75.2 nM; in assay [2], 775 nM.
For `CC(C)Cc1sc2cncn2c1C(O)CC1CCCCC1` (racemic) [Example 99, rac-2-Cyclohexyl-1-(2-isobutyl-imidazo[5,1-b]thiazol-3-yl)-ethanol], the IC50 was 837 nM in assay [1] and 1070 nM in assay [2].
As for `O[C@@H](CC1CCCCCC1)c1c(C2CC2)sc2cncn12` [Example 28a, (S)-2-Cycloheptyl-1-(2-cyclopropyl-imidazo[5,1-b]thiazol-3-yl)-ethanol], the IC50 in assay [1] is 22.2 nM; in assay [2], 358 nM.
With `OC(c1c(C2CC2)sc2cncn12)C1CCC(C(F)(F)F)CC1` (racemic) [Example 81, rac-(2-Cyclopropyl-imidazo[5,1-b]thiazol-3-yl)-(4-trifluoromethyl-cyclohexyl)-methanol], the half-inhibitory concentration (IC50) came out at 43.3 nM in assay [1] and 772 nM in assay [2].
On to `CC1(C)CCCCC1CC(O)c1c(C2CC2)sc2cncn12` (stereo not shown) [Example 76, 1-(2-Cycclopropyl-imidazo[5,1-b]thiazol-3-yl)-2-(2,2-dimethyl-cyclohexyl)-ethanol], for which the IC50 in assay [1] turned out to be 147 nM; in assay [2] it was 295 nM.
Regarding `Cc1sc2cncn2c1C(O)C1CC(C)(C)C1` (racemic) [Example 109, rac-(3,3-Dimethyl-cyclobutyl)-(2-methyl-imidazo[5,1-b]thiazol-3-yl)-methanol], the values for the IC50 in assay [1] and in assay [2] were 13.6 nM and 190 nM, respectively.
For `CC1(C)CCC(CC(O)c2c(C3CC3)sc3cncn23)C1` (stereo not shown) [Example 34, 1-(2-Cyclopropyl-imidazo[5,1-b]thiazol-3-yl)-2-(3,3-dimethyl-cyclopentyl)-ethanol], the IC50 in assay [1] was 39.4 nM; in assay [2] it was 321 nM.
On to `OC(CC1CCCC1c1ccccc1)c1c(C2CC2)sc2cncn12` (stereo not shown) [Example 135, 1-(2-Cyclopropyl-imidazo[5,1-b]thiazol-3-yl)-2-(2-phenyl-cyclopentyl)-ethanol], for which the IC50 in assay [1] turned out to be 139 nM; in assay [2] it was 3770 nM.
On to `CC1(C)CCC(C[C@H](O)c2c(C3CC3)sc3cncn23)C1` (stereo partly drawn) [Example 34a, (S)-1-(2-Cyclopropyl-imidazo[5,1-b]thiazol-3-yl)-2-(3,3-dimethyl-cyclopentyl)-ethanol], for which the IC50 amounted to 19.5 nM in assay [1] and 262 nM in assay [2].
